This is an account of results in the supplement of paper PMC6723410.

Assay [1] deals with GUMC-403. Put plainly: AC50 for reduction of cell viability; higher = less potent. To be noted: 48 h.
For assay [2], the system named is GUMC-403. In words: viability at highest tested concentration (max response) relative to DMSO (% of DMSO control); higher = less cytotoxic. To be noted: library / dose series: MIPE library, 11-point 1:3 dilution, 48 h. The method in brief: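 Each figure stands for viability at the highest tested concentration compared with vehicle control. It was measured by CellTiter-Glo luminescence on a ViewLux after 48 h of exposure to 23 nL of pinned compound, with vehicle wells taken as 100% and empty wells as 0%. The cells were patient-derived GUMC-403 papilloma cells grown by conditional reprogramming, plated at 700/well in 5 μL F + Y medium in 1536-well plates.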

[3] abbreviates: library / dose series: MIPE library, 11-point 1:3 dilution.

Consider `CC[C@@H]1C(=O)N(C)c2cnc(Nc3ccc(C(=O)NC4CCC(N5CCN(CC6CC6)CC5)CC4)cc3OC)nc2N1C(C)C` (stereo not given in full), for which, in assay [1] (setting [3]), the “AC50 for reduction of cell viability” value stood at 20900 nM. The viability in assay [2] (top concentration 46.1 µM) was 6.26.

`CN[S+](=O)([O-])CCc1ccc2[nH]cc(C3CCN(C)CC3)c2c1`: the “AC50 for reduction of cell viability” value in assay [1] (setting [3]) turned out to be 2350 nM. In assay [2] (top concentration 46.1 µM), the viability came out at 70.

In the case of `CNC(=O)[C@H](Cc1ccccc1)NC(=O)[C@H](CC(C)C)[C@H](CSc1cccs1)C(=O)NO`, the “AC50 for reduction of cell viability” value in assay [1] (setting [3]) is 5260 nM. Besides, the viability in assay [2] (top concentration 46.1 µM) turned out to be 68.4.

Consider `COc1cc(C[C@@H](CO)[C@H](CO)Cc2ccc(O)c(OC)c2)ccc1O`, for which the “AC50 for reduction of cell viability” value in assay [1] (setting [3]) was found to be 2640 nM. In addition, the viability in assay [2] (top concentration 46.1 µM) was 34.9.

Consider `O=C(Nc1c[nH]nc1-c1nc2cc(CN3CCOCC3)ccc2[nH]1)NC1CC1`, for which the “AC50 for reduction of cell viability” value in assay [1] (setting [3]) was 6620 nM. Further, in assay [2] (top concentration 46.1 µM), the viability came out at 8.38.

Regarding `N[S+](=O)([O-])OC[C@@H]1C[C@@H](n2ccc3c(N[C@H]4CCc5ccccc54)ncnc32)C[C@@H]1O`, the “AC50 for reduction of cell viability” value in assay [1] (setting [3]) worked out at 469 nM. Also, in assay [2] (top concentration 46.1 µM), the viability is 60.8.

For `CC/1=C(\O)C(=O)\C=C2/C1=C/C=C3\[C@@]2(C)CC[C@@]4(C)[C@@H]5C[C@@](C)(CC[C@]5(C)CC[C@]34C)C(O)=O`, the “AC50 for reduction of cell viability” value in assay [1] (setting [3]) was 8330 nM. Besides, the viability in assay [2] (top concentration 46.1 µM) is 6.06.

For `CNC(=O)c1cccc(-c2ccc3c(N4CCOC[C@@H]4C)nc(N4CCOC[C@@H]4C)nc3n2)c1`, the “AC50 for reduction of cell viability” value in assay [1] (setting [3]) worked out at 23.5 nM. In assay [2] (top concentration 46.1 µM), this compound showed a viability of 59.

For the compound `CCN(CC)C(=S)SSC(=S)N(CC)CC`, the “AC50 for reduction of cell viability” value in assay [1] (library / dose series: NPC library, 8-point 1:5 dilution) stood at 24800 nM. In assay [2] (top concentration 46.1 µM), this compound had a viability of 58.9.

`CCC[S+](=O)([O-])Nc1ccc(F)c(C(=O)c2c[nH]c3ncc(-c4ccc(Cl)cc4)cc23)c1F`: in assay [1] (setting [3]), the “AC50 for reduction of cell viability” value was 5900 nM. In addition, the viability in assay [2] (top concentration 46.1 µM) worked out at 54.9.

On to `OCCCNc1cc(-c2ccnc(Nc3cccc(Cl)c3)n2)ccn1`, for which the “AC50 for reduction of cell viability” value in assay [1] (setting [3]) came out at 105 nM. Besides, the viability in assay [2] (top concentration 46.1 µM) is 63.6.

Take `CC(C)C[C@@H](C(=O)N[C@H](C(=O)OC1CCCC1)c1ccccc1)[C@H](O)C(=O)NO`: in assay [1] (setting [3]), the “AC50 for reduction of cell viability” value came to 1660 nM. For the same compound, in assay [2] (top concentration 46.1 µM), the viability was determined as 66.7.

For `COCCn1c2c([n+](Cc3cnccn3)c1C)C(=O)c1ccccc1C2=O`, the “AC50 for reduction of cell viability” value in assay [1] (setting [3]) came to 187 nM. Besides, in assay [2] (top concentration 46.1 µM), the viability came to 5.13.

Turning to `COc1ccc(-c2nc(N3CCOCC3)c3sc(CN(C)c4ncc(C(=O)NO)cn4)cc3n2)cn1`, the “AC50 for reduction of cell viability” value in assay [1] (setting [3]) worked out at 1050 nM. This compound also registered a viability in assay [2] (top concentration 46.1 µM) of 44.7.

Regarding `COc1ccc(-c2ccc3ncc4c(c3c2)n(-c2ccc(N3CCNCC3)c(C(F)(F)F)c2)c(=O)n4C)cn1`, the “AC50 for reduction of cell viability” value in assay [1] (setting [3]) was 8330 nM. Also, the viability in assay [2] (top concentration 46.1 µM) came out at 3.16.

With `CN(C)C1=CC=C(C=C1)C(C2=CC=C(C=C2)N(C)C)=C/3\C=C/C(/C=C3)=[N+](C)C`, the “AC50 for reduction of cell viability” value in assay [1] (setting [3]) was determined as 14800 nM. In assay [2] (top concentration 46.1 µM), this compound yielded a viability of 4.73.

Take `FC(F)c1nc2ccccc2n1-c1nc(N2CCOCC2)nc(N2CCOCC2)n1`: the “AC50 for reduction of cell viability” value in assay [1] (setting [3]) was 418 nM. This compound also gave a viability in assay [2] (top concentration 46.1 µM) of 71.9.

Take `CS[C@H]1SC[C@@H]2C(=O)N(C)[C@H](C(C)C)C(=O)OC[C@H](NC(=O)c3cnc4ccccc4n3)C(=O)N[C@H](C)C(=O)N(C)[C@H]1C(=O)N(C)[C@H](C(C)C)C(=O)OC[C@H](NC(=O)c1cnc3ccccc3n1)C(=O)N[C@H](C)C(=O)N2C`: the “AC50 for reduction of cell viability” value in assay [1] (setting [3]) was determined as 20.9 nM. This compound also had a viability in assay [2] (top concentration 46.1 µM) of 14.4.

In the case of `COc1cc2ncnc(Nc3ccc(F)c(Cl)c3)c2cc1OCCCN1CCOCC1`, the “AC50 for reduction of cell viability” value in assay [1] (setting [3]) amounted to 270 nM. In assay [2] (top concentration 92.2 µM), this compound returned a viability of 58.7.

Regarding `CCC1=C2CN3C(=O)\C4=C(/C=C3/C2=NC5=CC=C(O)C=C15)[C@@](O)(CC)C(=O)OC4`, the “AC50 for reduction of cell viability” value in assay [1] (setting [3]) worked out at 4690 nM. Further, the viability in assay [2] (top concentration 46.1 µM) stood at 78.2.
